Assay results published in patent US20250042889A1, “3CLPRO PROTEASE INHIBITOR” (SHANGHAI QILU PHARMACEUTICAL RESEARCH AND DEVELOPMENT …, priority 2021, published 2025).

Molecular target: SARS-COV-2 3CLpro/Mpro protease (Severe acute respiratory syndrome coronavirus 2 (2019-nCoV) (SARS-CoV-2), UniProt P0DTD1)
Assay: Inhibitory effect on SARS-COV-2 3CLpro/Mpro protease by fluorescence resonance energy transfer
Format: biochemical
Conditions: activity intervals A-D, read-out: IC50 (nM), Inhibition on SARS-CoV-2 3CLpro/Mpro protease

Structure (SMILES)	IC50
Cc1cc(C(=O)N2CC(Nc3c(C(=O)N4CCC5(CCCC5)CC4)cc(Br)cc3[N+](=O)[O-])C(F)(F)C2)cc(=O)[nH]1 (stereo not shown) [Example 156]	10 to 50 nM
Cc1cc(C(=O)N2CC(Nc3c(C(=O)N4CCN(CC(F)(F)F)CC4)cc(Br)cc3[N+](=O)[O-])C(F)(F)C2)cc(=O)[nH]1 (stereo not shown) [Example 157]	50 to 100 nM
O=C1C[C@H](C(=O)N2CCC[C@@H](Nc3c(C(=O)N4CCC5(CCCCC5)CC4)cc(Br)cc3[N+](=O)[O-])C2)CCN1 [Example 158]	10 to 50 nM
Cc1cc(C(=O)N2CCC[C@@H](Nc3c(C(=O)N4CC(O)CC(Cl)C4)cc(Br)cc3[N+](=O)[O-])C2)cc(=O)[nH]1 (stereo partly shown) [Example 159]	< 10 nM
Cc1cc(C(=O)N2CC(Nc3c(C(=O)N4CCC5(CCCCC5)CC4)cc(Br)cc3[N+](=O)[O-])C(F)(F)C2)cc(=O)[nH]1 (stereo not shown) [Example 160]	10 to 50 nM
CNc1cncc(C(=O)N2CC(Nc3c(C(=O)N4C[C@@H](C)O[C@@H](C)C4)cc(Br)cc3[N+](=O)[O-])C(F)(F)C2)c1 (stereo partly shown) [Example 161]	10 to 50 nM
CNc1cncc(C(=O)N2C[C@H](Nc3c(C(=O)N4C[C@@H](C)O[C@@H](C)C4)cc(Br)cc3[N+](=O)[O-])C(C)(C)C2)c1 [Example 162]	10 to 50 nM
CC(C)(C)C1CCN(C(=O)c2cc(Br)cc([N+](=O)[O-])c2N[C@@H]2CCCN(C(=O)[C@@H]3CCNC(=O)C3)C2)CC1 [Example 163]	10 to 50 nM
C[C@@H]1CN(C(=O)c2cc(Br)cc([N+](=O)[O-])c2NC2CN(C(=O)c3cncc(I)c3)CC2(F)F)C[C@H](C)O1 (stereo partly shown) [Example 164]	10 to 50 nM
O=C(c1cncc(I)c1)N1CC(Nc2c(C(=O)N3CCCCC3)cc(Br)cc2[N+](=O)[O-])C(F)(F)C1 (stereo not shown) [Example 165]	10 to 50 nM
CNc1cncc(C(=O)N2CC(Nc3c(C(=O)N4CCC(C)(C)CC4)cc(Br)cc3[N+](=O)[O-])C(F)(F)C2)c1 (stereo not shown) [Example 166]	10 to 50 nM
O=C(c1cncc(I)c1)N1CC(Nc2c(C(=O)N3CCOCC3)cc(Br)cc2[N+](=O)[O-])C(F)(F)C1 (stereo not shown) [Example 167]	10 to 50 nM
CNc1cncc(C(=O)N2C[C@H](Nc3c(C(=O)N4CCCCC4)cc(Br)cc3[N+](=O)[O-])C(F)(F)C2)c1 [Example 168]	10 to 50 nM
CC1(O)CCN(C(=O)c2cc(Br)cc(C(F)(F)F)c2N[C@@H]2CCCC[C@@H]2NC(=O)c2cncc3cc(Cl)ccc23)CC1 [Example 169]	10 to 50 nM
CNc1cncc(C(=O)N2CC(Nc3c(C(=O)N4CCN(CC5CC5)CC4)cc(Br)cc3[N+](=O)[O-])C(F)(F)C2)c1 (stereo not shown) [Example 170]	10 to 50 nM
CNc1cncc(C(=O)N2CC(Nc3c(C(=O)N4CCC5(CCCCC5)CC4)cc(Br)cc3[N+](=O)[O-])C(C)(C)C2)c1 (stereo not shown) [Example 171]	10 to 50 nM
CNc1cncc(C(=O)N2CC(Nc3c(C(=O)N4CCN(C5CCCCC5)CC4)cc(Br)cc3[N+](=O)[O-])C(F)(F)C2)c1 (stereo not shown) [Example 172]	10 to 50 nM
CNc1cncc(C(=O)N2CC(Nc3c(C(=O)N4CCC[C@H](C)C4)cc(Br)cc3[N+](=O)[O-])C(C)(C)C2)c1 (stereo partly shown) [Example 173]	10 to 50 nM
CNc1cncc(C(=O)N2CC(Nc3c(C(=O)N4CCC[C@@H](C)C4)cc(Br)cc3[N+](=O)[O-])C(C)(C)C2)c1 (stereo partly shown) [Example 174]	10 to 50 nM
CNc1cncc(C(=O)N2CC(Nc3c(C(=O)N4CCC(C)(C)CC4)cc(Br)cc3[N+](=O)[O-])C(C)(C)C2)c1 (stereo not shown) [Example 175]	10 to 50 nM
CNc1cncc(C(=O)N2CC(Nc3c(C(=O)N4CCC5(CCCC5)CC4)cc(Br)cc3[N+](=O)[O-])C(C)(C)C2)c1 (stereo not shown) [Example 176]	10 to 50 nM
CNc1cncc(C(=O)N2CC(Nc3c(C(=O)N4CCC5(CCC5)CC4)cc(Br)cc3[N+](=O)[O-])C(C)(C)C2)c1 (stereo not shown) [Example 177]	10 to 50 nM

Structure (SMILES)	IC50
CNc1cncc(C(=O)N2CC(Nc3c(C(=O)N4C[C@@H](C)N(CCOC)[C@@H](C)C4)cc(Br)cc3[N+](=O)[O-])C(F)(F)C2)c1 (stereo partly shown) [Example 178]	50 to 100 nM
CC1CC(C(=O)N2CCC[C@@H](Nc3c(C(=O)N4C[C@@H](C)O[C@@H](C)C4)cc(Br)cc3[N+](=O)[O-])C2)CC(=O)N1 (stereo partly shown) [Example 179]	50 to 100 nM
CNc1cncc(C(=O)N2CC(Nc3c(C(=O)N4C[C@H](C)C[C@H](C)C4)cc(Br)cc3[N+](=O)[O-])C(C)(C)C2)c1 (stereo partly shown) [Example 180]	50 to 100 nM
COCCN1CCN(C(=O)c2cc(Br)cc([N+](=O)[O-])c2NC2CN(C(=O)c3cncc(I)c3)CC2(F)F)CC1 (stereo not shown) [Example 181]	10 to 50 nM
CNc1cncc(C(=O)N2C[C@H](Nc3c(C(=O)N4C[C@@H](C)O[C@@H](C)C4)cc(Br)cc3[N+](=O)[O-])C(F)(F)C2)c1 [Example 182]	10 to 50 nM
O=C(c1cncc(Br)c1)N1C[C@H](Nc2c(C(=O)N3CCC(F)(F)CC3)cc(Br)cc2[N+](=O)[O-])C(F)(F)C1 [Example 183]	10 to 50 nM
O=C(N[C@H]1CCOC[C@H]1Nc1c(C(=O)N2CCCCC2)cc(Br)cc1[N+](=O)[O-])c1cncc2cc(Cl)ccc12 [Example 184]	< 10 nM
O=C(N[C@H]1CCOC[C@H]1Nc1c(C(=O)N2CCC(F)(F)CC2)cc(Br)cc1[N+](=O)[O-])c1cncc2cc(Cl)ccc12 [Example 185]	10 to 50 nM
CNc1cncc(C(=O)N2CC(Nc3c(C(=O)N4CCCCC4)cc(Br)cc3[N+](=O)[O-])C(C)(C)C2)c1 (stereo not shown) [Example 186]	10 to 50 nM
CNc1cncc(C(=O)N2C[C@H](Nc3c(C(=O)N4C[C@@H](C)O[C@H](C)C4)cc(Br)cc3[N+](=O)[O-])C(C)(C)C2)c1 [Example 187]	10 to 50 nM
CNc1cncc(C(=O)N2C[C@H](Nc3c(C(=O)N4C[C@H](C)O[C@@H](C)C4)cc(Br)cc3[N+](=O)[O-])C(C)(C)C2)c1 [Example 189]	10 to 50 nM
COCCN1CCN(C(=O)c2cc(Br)cc([N+](=O)[O-])c2N[C@H]2CN(C(=O)c3cncc(I)c3)CC2(C)C)CC1 [Example 190]	10 to 50 nM
CNc1cncc(C(=O)N2C[C@H](Nc3c(C(=O)N4CCN(CCOC)CC4)cc(Br)cc3[N+](=O)[O-])C(C)(C)C2)c1 [Example 191]	10 to 50 nM
O=C(c1cncc(I)c1)N1C[C@H](Nc2c(C(=O)N3CCC(F)(F)CC3)cc(Br)cc2[N+](=O)[O-])C(F)(F)C1 [Example 192]	10 to 50 nM
O=C(N[C@H]1COCC[C@H]1Nc1c(C(=O)N2CCCCC2)cc(Br)cc1[N+](=O)[O-])c1cncc2cc(Cl)ccc12 [Example 193]	10 to 50 nM
O=C(N[C@H]1COCC[C@H]1Nc1c(C(=O)N2CCCCC2)cc(Br)cc1[N+](=O)[O-])c1cncc2ccccc12 [Example 194]	10 to 50 nM
COCCN1[C@H](C)CN(C(=O)c2cc(Br)cc([N+](=O)[O-])c2N[C@@H]2COCC[C@@H]2NC(=O)c2cncc3ccccc23)C[C@@H]1C [Example 195]	10 to 50 nM
CNc1cncc(C(=O)N[C@H]2CCCC[C@H]2Nc2c(C(=O)N3CCCCC3)cc(Br)cc2[N+](=O)[O-])c1 [Example 196]	10 to 50 nM
O=C(c1cncc(Br)c1)N1C[C@H](Nc2c(C(=O)N3CCCCC3)cc(Br)cc2[N+](=O)[O-])C(F)(F)C1 [Example 197]	10 to 50 nM
CNc1cncc(C(=O)N[C@H]2CCCC[C@H]2Nc2c(C(=O)N3C[C@@H](C)O[C@@H](C)C3)cc(Br)cc2[N+](=O)[O-])c1 [Example 198]	10 to 50 nM
CNc1cncc(C(=O)N2C[C@H](Nc3c(C(=O)N4C[C@@H](C)O[C@H](C)C4)cc(Br)cc3[N+](=O)[O-])C(F)(F)C2)c1 [Example 199]	50 to 100 nM
